pIC50: −log10 of the molar value.
Each compound was assayed on HIV (assay: MT4 assay: antiviral HIV activity (cell protection, cell titer glo readout at 96 hours)). Details: Human immunodeficiency virus 1, MT4, 96 h, MT4 cells, cell titer glo readout at 96 hours, 10 point dose response; read-out: HIV MT4 Assay IC50.
Format: cell-based
Protocol: Antiviral HIV activity and cytotoxicity values for compounds of the invention from Table 1 were measured in parallel in the HTLV-1 transformed cell line MT-4 based on the method previously described (Hazen et al., 2007, In vitro antiviral activity of the novel, tyrosyl-based human immunodeficiency virus (HIV) type 1 protease inhibitor brecanavir (GW640385) in combination with other antiretrovirals and against a panel of protease inhibitor-resistant HIV (Hazen et al., “In vitro antiviral activity of the novel, tyrosyl-based human immunodeficiency virus (HIV) type 1 protease inhibitor brecanavir (GW640385) in combination with other antiretrovirals and against a panel of protease inhibitor-resistant HIV”, Antimicrob. Agents Chemother. 2007, 51: 3147-3154; and Pauwels et al., “Sensitive and rapid assay on MT-4 cells for the detection of antiviral compounds against the AIDS virus”, J. of Virological Methods 1987, 16: 171-185).
Luciferase activity was measured 96 hours later by adding a cell titer glo (Promega, Madison, Wis.). Percent inhibition of cell protection data was plotted relative to no compound control. Under the same condition, cytotoxicity of the compounds was determined using cell titer Glo™ (Promega, Madison, Wis.). IC50s were determined from a 10 point dose response curve using 3-4-fold serial dilution for each compound, which spans a concentration range >1000 fold.
These values are plotted against the molar compound concentrations using the standard four parameter logistic equation:
y=((Vmax*x̂n)/(K̂n+x̂n))+Y2
Y2=minimum y n=slope factor
Vmax=maximum y x=compound concentration [M]
In the case of Cc1nc2c(cc(-c3ccnc(C#CCN4CCOCC4)c3)n2C)c(-c2cc(F)c3c(c2C)CCCO3)c1[C@H](OC(C)(C)C)C(=O)O (atropisomer, axis not shown) [Example 158], the pIC50 was 7.35. Compound Cc1nc2c(cc(-c3nnc(N4CCN(C5CCOCC5)C[C@H]4C)o3)n2C)c(-c2cc(F)c3c(c2C)CCCO3)c1[C@H](OC(C)(C)C)C(=O)O [Example 328] has a pIC50 of 8.38. Compound Cc1nc2c(cc(-c3ccnc(N4CCC(C)CC4)c3)n2C)c(-c2cc(F)c3c(c2C)CCCO3)c1[C@H](OC(C)(C)C)C(=O)O (atropisomer, axis not shown) [Example 80] has a pIC50 of 7.67. CC1=NC2(CCN(C(=O)c3cc4c(-c5cc(F)c6c(c5C)CCCO6)c([C@H](OC(C)(C)C)C(=O)O)c(C)nc4n3C)CC2)N=C1c1ccccc1 [Example 218] showed a pIC50 of 7.33. In the case of Cc1nc2c(cc(-c3nnc(N4CCN5CCC[C@@H]5C4)o3)n2C)c(-c2cc(F)c3c(c2C)CCCO3)c1[C@H](OC(C)(C)C)C(=O)O [Example 326], the pIC50 was 8.42. Cc1nc2c(cc(-c3ccnc(N4CCN5CCCC5C4)c3)n2C)c(-c2cc(F)c3c(c2C)CCCO3)c1[C@H](OC(C)(C)C)C(=O)O (stereo partly shown) [Example 116] was tested, and the pIC50 was 7.40. Cc1nc2c(cc(-c3ccnc(-c4ccc5c(c4)C(C)(C)CO5)c3)n2C)c(-c2cc(F)c3c(c2C)CCCO3)c1[C@H](OC(C)(C)C)C(=O)O (atropisomer, axis not shown) [Example 37] was tested, and the pIC50 was 7.32. With COCCC(=O)N1CCCN(c2cc(-c3cc4c(-c5cc(F)c6c(c5C)CCCO6)c([C@H](OC(C)(C)C)C(=O)O)c(C)nc4n3C)ccn2)CC1 (atropisomer, axis not shown) [Example 125] the pIC50 was 7.38. Cc1nc2c(cc(C(=O)NCCc3cccnc3)n2C)c(-c2cc(F)c3c(c2C)CCCO3)c1[C@H](OC(C)(C)C)C(=O)O [Example 262] gave a pIC50 of 6.99. In the case of Cc1nc2c(cc(-c3cnn(CC4CN(C5CCOCC5)C4)c3)n2C)c(-c2cc(F)c3c(c2C)CCCO3)c1[C@H](OC(C)(C)C)C(=O)O (atropisomer, axis not shown) [Example 130], the pIC50 was 6.54. Cc1nc2c(cc(-c3nc(N4CCC(C)CC4)ns3)n2C)c(-c2cc(F)c3c(c2C)CCCO3)c1[C@H](OC(C)(C)C)C(=O)O [Example 372] gave a pIC50 of 7.44. Work on Cc1nc2c(cc(C(=O)N3CCN(CC(=O)N4CCCC4)CC3)n2C)c(-c2cc(F)c3c(c2C)CCCO3)c1[C@H](OC(C)(C)C)C(=O)O [Example 203] yielded a pIC50 of 5.22. Work on Cc1nc2c(cc(C(=O)N(C)Cc3ccccc3)n2C)c(-c2cc(F)c3c(c2C)CCCO3)c1[C@H](OC(C)(C)C)C(=O)O [Example 192] yielded a pIC50 of 7.78. Work on Cc1nc2c(cc(-c3ccnc(C(=O)N4CCN(S(C)(=O)=O)CC4)c3)n2C)c(-c2cc(F)c3c(c2C)CCCO3)c1[C@H](OC(C)(C)C)C(=O)O (atropisomer, axis not shown) [Example 146] yielded a pIC50 of 6.31. Cc1nc2c(cc(-c3ccnc(NC4C[C@H]5CC[C@@H](C4)N5C)c3)n2C)c(-c2cc(F)c3c(c2C)CCCO3)c1[C@H](OC(C)(C)C)C(=O)O (stereo partly shown) [Example 112] was tested, and the pIC50 was 5.88. Cc1nc2c(cc(-c3ccnc(-c4ccc5ccccc5c4)c3)n2C)c(-c2cc(F)c3c(c2C)CCCO3)c1[C@H](OC(C)(C)C)C(=O)O (atropisomer, axis not shown) [Example 39] was tested, and the pIC50 was 7.76. Compound Cc1nc2c(cc(/C=C/C(=O)NCC3CCCCC3)n2C)c(-c2cc(F)c3c(c2C)CCCO3)c1[C@H](OC(C)(C)C)C(=O)O [Example 414] has a pIC50 of 7.77. For Cc1nc2c(cc(C(=O)N3CCN(C(C)c4ccccc4)CC3)n2C)c(-c2cc(F)c3c(c2C)CCCO3)c1[C@H](OC(C)(C)C)C(=O)O (stereo partly shown) [Example 196], the pIC50 was 7.91. In the case of COC[C@H]1CCCN1Cc1cc2c(-c3cc(F)c4c(c3C)CCCO4)c([C@H](OC(C)(C)C)C(=O)O)c(C)nc2n1C [Example 290], the pIC50 was 7.32. In the case of Cc1nc2c(cc(C(=O)NCc3cccnc3)n2C)c(-c2cc(F)c3c(c2C)CCCO3)c1[C@H](OC(C)(C)C)C(=O)O [Example 266], the pIC50 was 6.84. In the case of Cc1nc2c(cc(-c3nsc(-c4ccc5c(cnn5C)c4)n3)n2C)c(-c2cc(F)c3c(c2C)CCCO3)c1[C@H](OC(C)(C)C)C(=O)O (atropisomer, axis not shown; (M)) [Example 357, (2S)(M)-2-(tert-butoxy)-2-(-4-(8-fluoro-5-methylchroman-6-yl)-1,6-dimethyl-2-(5-(1-methyl-1H-indazol-5-yl)-1,2,4-thiadiazol-3-yl)-1H-pyrrolo[2,3-b]pyridin-5-yl)acetic acid], the pIC50 was 8.40. Cc1nc2c(cc(CCc3ccncc3)n2C)c(-c2cc(F)c3c(c2C)CCCO3)c1[C@H](OC(C)(C)C)C(=O)O [Example 285] was tested, and the pIC50 was 7.33. Cc1nc2c(cc(C(=O)NCc3ccccc3)n2C)c(-c2cc(F)c3c(c2C)CCCO3)c1[C@H](OC(C)(C)C)C(=O)O [Example 209] gave a pIC50 of 8.03. Work on Cc1nc2c(cc(-c3nnc(N4CC5CN(C6COC6)CC5C4)o3)n2C)c(-c2cc(F)c3c(c2C)CCCO3)c1[C@H](OC(C)(C)C)C(=O)O (stereo partly shown) [Example 309] yielded a pIC50 of 7.34. Work on Cc1nc2c(cc(-c3nnc(N4CCN(C5CCOCC5)CC4)o3)n2C)c(-c2cc(F)c3c(c2C)CCCO3)c1[C@H](OC(C)C)C(=O)O [Example 441] yielded a pIC50 of 6.80. Cc1nc2c(cc(-c3ccnc(C(=O)Nc4cnn(C)c4)c3)n2C)c(-c2cc(F)c3c(c2C)CCCO3)c1[C@H](OC(C)(C)C)C(=O)O (atropisomer, axis not shown) [Example 147] gave a pIC50 of 7.34. Work on Cc1nc2c(cc(-c3ccnc(N4CCCN(C5COC5)CC4)c3)n2C)c(-c2ccc3c(c2C)CCCO3)c1[C@H](OC(C)(C)C)C(=O)O [Example 430] yielded a pIC50 of 7.79. In the case of Cc1cc(COc2cc(-c3cc4c(-c5cc(F)c6c(c5C)CCCO6)c([C@H](OC(C)(C)C)C(=O)O)c(C)nc4n3C)ccn2)ccn1 [Example 73], the pIC50 was 8.42. COCCNC(=O)/C=C/c1cc2c(-c3cc(F)c4c(c3C)CCCO4)c([C@H](OC(C)(C)C)C(=O)O)c(C)nc2n1C (atropisomer, axis not shown; (M)) [Example 413, (2S)(M)-2-(tert-butoxy)-2-(-4-(8-fluoro-5-methylchroman-6-yl)-2-((E)-3-((2-methoxyethyl)amino)-3-oxoprop-1-en-1-yl)-1,6-dimethyl-1H-pyrrolo[2,3-b]pyridin-5-yl)acetic acid] was tested, and the pIC50 was 6.83. Cc1nc2c(cc(-c3cncc(N4CCN(C5CCOCC5)CC4)c3)n2C)c(-c2cc(F)c3c(c2C)CCCO3)c1[C@H](OC(C)(C)C)C(=O)O [Example 361] was tested, and the pIC50 was 7.83. Work on Cc1nc2c(cc(CCC(=O)Nc3ccc4c(cnn4C)c3)n2C)c(-c2cc(F)c3c(c2C)CCCO3)c1[C@H](OC(C)(C)C)C(=O)O [Example 298] yielded a pIC50 of 6.59. Compound Cc1nc2c(cc(-c3cc(N4CCN(C5CCOCC5)CC4)ccn3)n2C)c(-c2cc(F)c3c(c2C)CCCO3)c1[C@H](OC(C)(C)C)C(=O)O [Example 362] has a pIC50 of 8.24. In the case of Cc1nc2c(cc(/C=C/C(=O)NCc3ccc(F)cc3)n2C)c(-c2cc(F)c3c(c2C)CCCO3)c1[C@H](OC(C)(C)C)C(=O)O [Example 417], the pIC50 was 7.47. In the case of Cc1nc2c(cc(C(=O)N3CCN(CC(=O)N4CCOCC4)CC3)n2C)c(-c2cc(F)c3c(c2C)CCCO3)c1[C@H](OC(C)(C)C)C(=O)O [Example 204], the pIC50 was 4.94. Cc1nc2c(cc(-c3ccnc(N4CCCN(C5CCOC5)CC4)c3)n2C)c(-c2cc(F)c3c(c2C)CCCO3)c1[C@H](OC(C)(C)C)C(=O)O (stereo partly shown) [Example 126] showed a pIC50 of 7.65. In the case of Cc1nc2c(cc(-c3ccnc(N4CCN(C5COC5)CC4)c3)n2C)c(-c2cc(F)c3c(c2C)CCCO3)c1[C@H](OC(C)(C)C)C(=O)O (atropisomer, axis not shown) [Example 25, (2S)-2-(tert-butoxy)-2-[4-(8-fluoro-5-methyl-3,4-dihydro-2H-1-benzopyran-6-yl)-1,6-dimethyl-2-{2-[4-(oxetan-3-yl)piperazin-1-yl]pyridin-4-yl}-1H-pyrrolo[2,3-b]pyridin-5-yl]acetic acid], the pIC50 was 7.97. For Cc1nc2c(cc(C(=O)N3CCN(C(=O)OCc4ccccc4)CC3)n2C)c(-c2cc(F)c3c(c2C)CCCO3)c1[C@H](OC(C)(C)C)C(=O)O [Example 198], the pIC50 was 7.58. Compound CCN(CC)C1C[C@H]2CC[C@@H](C1)N2c1cc(-c2cc3c(-c4cc(F)c5c(c4C)CCCO5)c([C@H](OC(C)(C)C)C(=O)O)c(C)nc3n2C)ccn1 (stereo partly shown) [Example 110] has a pIC50 of 7.35. Work on Cc1nc2c(cc(-c3cc(-c4ccc5c(cnn5C)c4)ccn3)n2C)c(-c2cc(F)c3c(c2C)CCCO3)c1[C@H](OC(C)(C)C)C(=O)O [Example 139] yielded a pIC50 of 8.70. In the case of Cc1nc2c(cc(-c3cc(N4C[C@@H](C)O[C@@H](C)C4)ncn3)n2C)c(-c2cc(F)c3c(c2C)CCCO3)c1[C@H](OC(C)(C)C)C(=O)O (racemic) [Example 364], the pIC50 was 7.96. Work on Cc1nc2c(cc(-c3nnc(NCC4CCOCC4)o3)n2C)c(-c2cc(F)c3c(c2C)CCCO3)c1[C@H](OC(C)(C)C)C(=O)O [Example 304] yielded a pIC50 of 7.39. For Cc1nc2c(cc(C(=O)NCc3ccc4c(c3)OCO4)n2C)c(-c2cc(F)c3c(c2C)CCCO3)c1[C@H](OC(C)(C)C)C(=O)O [Example 260], the pIC50 was 8.72. CCCn1cc(-c2cc(-c3cc4c(-c5cc(F)c6c(c5C)CCCO6)c([C@H](OC(C)(C)C)C(=O)O)c(C)nc4n3C)ccn2)cn1 [Example 44] showed a pIC50 of 7.85.

From patent publication US20150191469A1, “COMPOUNDS AND METHODS FOR TREATING HIV” (priority 2012, published 2015)
